Experimental data taken from patent US20120283293A1, “Methods of neuroprotection involving Prostaglandin E2 EP4 (PGE2 EP4) receptor activation” (The Board of Trustees of the Leland Stanford Junior …, priority 2011, published 2012).

Test system: BV-2 cells
Test: qPCR of pro-inflammatory gene expression in LPS-stimulated BV-2 cells
Assay type: cell-based, murine
Settings: LPS 10 ng/ml, 6 h
Method: Murine microglial-like BV-2 cells were grown in DMEM medium supplemented with 10% heat-inactivated fetal bovine serum (HyClone, Logan, Utah) and 100 units/ml each of penicillin and streptomycin and were maintained at 37° C. in a humidified atmosphere containing 5% CO2. For primary microglial cultures, cerebral cortices were isolated from postnatal day 2 Sprague-Dawley rat pups obtained from Charles River Laboratories International, Inc. (Davis, Calif.). Tissues were minced and incubated in 0.25% trypsin-EDTA, mechanically triturated in DMEM/F-12 with 10% FBS, and plated on poly-L-lysine-coated […]. Cultures were maintained for 14 days with media changes every 4 days. […]
qPCR was carried out as previously described (Liang et al., 2008). […] The mRNA level for each target gene was quantified by SYBR Green-based qPCR using the QuantiTect SYBR Green PCR kit (Qiagen). […] Quantification was performed using the standard curve method. […]
Inflammatory stimuli such as LPS can activate microglia through the CD14/TLR4 receptor complex and induce the expression of pro-inflammatory enzymes and cytokines (Fassbender et al., 2004; Walter et al., 2007). […] BV-2 cells were treated with LPS (10 ng/ml) in the presence or absence of the selective EP4 agonist AE1-329 (1 μM) for 6 h, and pro-inflammatory gene expression was measured using qPCR (see FIG. 2). […]

COCc1ccccc1CC[C@H](O)/C=C/[C@H]1[C@H](O)CC(=O)[C@@H]1SCCCSCC(=O)O [AE1-329]
LPS-induced mRNA of COX-2, iNOS, gp91phox, TNF-α, IL-1β and IL-6 (AE1-329 1 μM, qPCR): significantly blunted the induction of these genes
IL-10 mRNA expression (co-stimulation with AE1-329 1 μM): significantly induced expression
